Columns and labels:
NR2B = NR2B (Rattus norvegicus (Rat), UniProt Q00960); assay: NR2B rat cortical neuron calcium influx assay; format: cell-based; details: rat cortical neurons, glutamate and glycine stimulated calcium influx
Source text: Example 1: NR2B Rat Cortical Neuron Calcium Influx Assay Protocol
Embryonic day 18 timed pregnant Sprague Dawley rats were euthanized according to Institutional Animal Care and Use Committee (IACUC) protocol. After cutting medially through the skin and exposing the uterus and embryos, fetuses were removed and placed in cold Hibernate medium. Each embryo's brain was extracted and cerebral cortices were isolated by removing the midbrain and meninges. The dissected cortices were then dissociated into the neurons using papain dissociation system (Worthington Biochemical Corporation) according the manufacturer's protocol.
Dissociated neurons were counted and plated into 384-well poly-D-lysine coated plates (Corning® BioCoat™) at a density of 20,000 cells/well in 30 μL of Neurobasal/B27 complete medium. Neurons were cultured at 37° C. for 2 days. On the assay day, medium was removed and cells were incubated with 20 μL/well of calcium dye (Calcium 6 Assay Kit, Molecular Devices) suspended in HBSS with 1.8 mM Ca^2+ (Ca-HBSS) according to the manufacturer's instruction.
Compounds of interest from 10 mM stock were serially diluted into 3× of desired concentrations in 1.8 mM Ca-HBSS, and 10 μL were added to the wells. Compound and the neurons were incubated at 37° C. for 2 hours in the dark.
On FDSS7000EX (Hamamatsu Photonics), a fluorescence measuring instrument, 10 μL of 4× ligand solution containing glutamate and glycine made in 1.8 mM Ca^2+-HBSS were added to each well. The fluorescent signals were collected before and after the addition of ligands for a total of 2 minutes. The data were converted to a ratio of the peak fluorescence to the fluorescence at the beginning of the measurement.
Each data point was measured in duplicates. Dose response curves were used to identify IC50 and maximal inhibition values. IC50 represents the concentration in μM of compound at which there is a half-maximal compound effect. Maximal inhibition of a compound is expressed as a percent of the highest inhibition of activity over a no compound control.

P-glycoprotein (P-gp) = P-glycoprotein (P-gp) (Homo sapiens (Human), UniProt P08183); assay: MDCK-MDR1 permeability / efflux assay; format: in vitro ADME; details: for efflux ratio at 120 min, 10 μM: dog, MDCK-MDR1, pH 7.4, efflux ratio, read-out: MDCK-MDR1 ER
P-glycoprotein (P-gp), sequence (P08183 whole entry): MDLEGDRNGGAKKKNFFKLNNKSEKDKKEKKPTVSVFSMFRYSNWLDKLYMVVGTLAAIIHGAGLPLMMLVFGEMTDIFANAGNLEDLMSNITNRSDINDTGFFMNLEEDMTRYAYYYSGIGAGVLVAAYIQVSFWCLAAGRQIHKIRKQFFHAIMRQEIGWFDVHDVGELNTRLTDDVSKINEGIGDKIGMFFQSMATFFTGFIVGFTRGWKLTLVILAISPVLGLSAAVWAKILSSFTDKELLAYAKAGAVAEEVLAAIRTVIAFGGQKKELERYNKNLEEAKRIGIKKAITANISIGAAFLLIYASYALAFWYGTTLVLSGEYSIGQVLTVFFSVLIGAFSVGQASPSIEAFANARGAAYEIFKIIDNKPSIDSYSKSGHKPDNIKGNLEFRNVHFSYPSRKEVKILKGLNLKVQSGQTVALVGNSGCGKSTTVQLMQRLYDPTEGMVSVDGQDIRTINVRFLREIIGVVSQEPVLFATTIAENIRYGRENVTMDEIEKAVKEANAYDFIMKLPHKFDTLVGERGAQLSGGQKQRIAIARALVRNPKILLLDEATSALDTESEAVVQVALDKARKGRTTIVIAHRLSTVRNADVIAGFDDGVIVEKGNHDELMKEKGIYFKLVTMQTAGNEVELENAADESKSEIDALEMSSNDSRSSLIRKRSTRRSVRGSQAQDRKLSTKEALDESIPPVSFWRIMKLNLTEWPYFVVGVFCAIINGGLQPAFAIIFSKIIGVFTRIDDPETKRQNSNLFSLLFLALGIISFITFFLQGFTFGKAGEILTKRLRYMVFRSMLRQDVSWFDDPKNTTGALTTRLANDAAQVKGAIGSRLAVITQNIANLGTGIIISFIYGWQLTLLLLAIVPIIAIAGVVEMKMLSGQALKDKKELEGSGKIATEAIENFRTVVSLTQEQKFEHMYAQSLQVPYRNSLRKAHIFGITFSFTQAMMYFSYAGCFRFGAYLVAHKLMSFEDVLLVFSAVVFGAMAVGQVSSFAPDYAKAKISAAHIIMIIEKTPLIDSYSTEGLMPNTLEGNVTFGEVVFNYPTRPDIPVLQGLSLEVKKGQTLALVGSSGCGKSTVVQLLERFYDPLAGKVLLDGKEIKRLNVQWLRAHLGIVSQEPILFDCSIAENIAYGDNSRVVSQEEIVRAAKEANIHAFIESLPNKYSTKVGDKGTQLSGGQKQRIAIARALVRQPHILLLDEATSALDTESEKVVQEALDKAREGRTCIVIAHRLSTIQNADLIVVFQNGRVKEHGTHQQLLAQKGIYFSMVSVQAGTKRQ
Experimental: Example 4. Experimental Measurement of Efflux with MDCK-MDR1 Protocol
Cell Culture. MDCK-MDR1 cells were cultured at 37° C. under a 5% CO2 atmosphere, at 95% relative humidity in DMEM containing 10% FBS, penicillin-streptomycin (100 μg/mL), and 2 mM Ala-Gln. Cells were passaged every 3-4 days. For assay purposes, cells were seeded at a density of approximately 265,000 cells/cm^2 of a 96-well Transwell plate (Corning Life Sciences, Acton, MA) and cultured in the same media noted above for a period of 4 days.
Assay. The determination of the apparent permeability (Papp) was performed in both the A→B (apical to basal) and B→A (basal to apical) directions where each compound was assayed in triplicate. The zwitterion bestatin, a poorly permeably compound, was used as marker of monolayer integrity. To initiate the assay, media was aspirated, and the cells and basal chambers were washed three times with Hank's Balanced Salt Solution (HBSS) containing 10 mM HEPES (pH 7.4). Compound test solutions were prepared in triplicate in HBSS containing 10 mM HEPES (pH 7.4) and 0.02% bovine serum albumin (BSA) to a final concentration of 10 μM and centrifuged for 2 min at 4000×g, then applied to the donor compartment at time zero. Additionally, at time zero, a 37° C. solution without test articles (HBSS+10 mM HEPES (pH 7.4) plus 0.02% BSA) was added to the receiver chamber of the Transwell plate. A time zero sample of the donor solution was also sampled for further analysis. The assay was conducted for a period of 120 min at 37° C. without shaking. At the time of assay termination, samples were taken from each donor compartment, and each acceptor compartment of the Transwell plate. To each of the 0 and 120 min samples was added an internal standard solution containing glyburide in water:acetonitrile, 50:50 (v:v). Concentration curves were prepared using a Labcyte Echo in the same matrix noted above. Samples and concentration curve samples were centrifuged for 10 min at 4000×g and subsequently analyzed by mass spectroscopy.
Mass Spectroscopy. Assay samples were loaded onto a RapidFire C4 cartridge by means of a RapidFire autosampler (Agilent, Santa Clara, CA). […] Mass spectroscopy was performed using an AB Sciex AP15500 (Sciex, Frammingham, MA) equipped with a turbo ion spray source. The analyte concentration was calculated from the chromatographic peak area ratio of analyte to internal standard (glibenclamide, m/z 494→169), using Multiquant software V3.0 (Sciex, Framingham, MA).
Calculations. Papp values were determined as
Percent recovery values were determined as:
where VA is the volume of the acceptor (mL), S is the surface area of the membrane, D0 is the donor solution concentration at t=0, D120 is the donor solution concentration at t=120, A120 is the acceptor solution concentration at t=120, and t=time (seconds).
The suitability of a compound for oral dosing and/or for use as a CNS therapeutic is usually conducted by MDCK-MDR1 permeability assay to investigate its drug efflux potential mediated by P-glycoprotein (P-gp). MDCK-MDR1 permeability has been used as a predictor of blood brain barrier permeability in terms of efflux ratio (ER).

NR2B, sequence (Q00960 27-1482, other chains not shown): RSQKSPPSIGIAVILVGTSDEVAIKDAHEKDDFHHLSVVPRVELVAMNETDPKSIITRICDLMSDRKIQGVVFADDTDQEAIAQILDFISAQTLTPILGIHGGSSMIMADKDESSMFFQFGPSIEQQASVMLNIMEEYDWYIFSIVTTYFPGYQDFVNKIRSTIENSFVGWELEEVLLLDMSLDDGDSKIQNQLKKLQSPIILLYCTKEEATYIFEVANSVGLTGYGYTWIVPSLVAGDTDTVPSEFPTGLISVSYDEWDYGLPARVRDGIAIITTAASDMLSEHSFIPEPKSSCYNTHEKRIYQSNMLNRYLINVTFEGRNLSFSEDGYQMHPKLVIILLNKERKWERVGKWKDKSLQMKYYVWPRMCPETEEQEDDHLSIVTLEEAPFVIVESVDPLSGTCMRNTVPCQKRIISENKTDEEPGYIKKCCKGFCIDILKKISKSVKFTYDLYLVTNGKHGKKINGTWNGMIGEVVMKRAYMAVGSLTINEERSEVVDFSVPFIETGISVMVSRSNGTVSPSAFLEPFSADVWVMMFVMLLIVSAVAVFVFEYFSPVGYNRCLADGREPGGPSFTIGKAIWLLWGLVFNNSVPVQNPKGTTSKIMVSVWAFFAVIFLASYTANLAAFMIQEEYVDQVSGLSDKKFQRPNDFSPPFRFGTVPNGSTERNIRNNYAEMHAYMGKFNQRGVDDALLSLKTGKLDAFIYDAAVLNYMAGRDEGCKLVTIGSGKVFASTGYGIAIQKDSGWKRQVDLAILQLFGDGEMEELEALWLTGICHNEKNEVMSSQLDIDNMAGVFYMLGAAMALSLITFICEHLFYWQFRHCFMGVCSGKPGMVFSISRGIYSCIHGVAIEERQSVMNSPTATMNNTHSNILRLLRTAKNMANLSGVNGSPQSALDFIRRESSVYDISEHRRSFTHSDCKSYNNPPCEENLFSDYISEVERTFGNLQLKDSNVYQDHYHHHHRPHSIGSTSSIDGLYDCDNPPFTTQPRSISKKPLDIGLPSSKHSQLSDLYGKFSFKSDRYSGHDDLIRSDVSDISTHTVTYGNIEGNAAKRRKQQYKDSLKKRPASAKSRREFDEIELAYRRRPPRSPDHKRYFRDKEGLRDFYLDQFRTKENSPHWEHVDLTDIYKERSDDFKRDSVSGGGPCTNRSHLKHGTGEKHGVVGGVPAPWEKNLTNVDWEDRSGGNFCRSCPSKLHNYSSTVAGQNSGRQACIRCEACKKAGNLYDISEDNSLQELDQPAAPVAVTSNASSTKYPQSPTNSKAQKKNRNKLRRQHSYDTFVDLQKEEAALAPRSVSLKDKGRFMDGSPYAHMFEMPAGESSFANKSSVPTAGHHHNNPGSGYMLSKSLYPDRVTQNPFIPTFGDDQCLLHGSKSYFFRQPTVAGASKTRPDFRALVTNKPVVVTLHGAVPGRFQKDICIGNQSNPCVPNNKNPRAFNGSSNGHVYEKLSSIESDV

IC50 (NR2B) [nM] | efflux ratio at 120 min, 10 μM (P-glycoprotein (P-gp)) | MDCK-MDR1 ER (P-glycoprotein (P-gp); efflux ratio, 10 μM, 120 min) | SMILES
280 | 1.18 | – | O=C1CCCc2cc([C@@H](O)CN3C[C@H]4C[C@H](Oc5ccccc5)C[C@@]4(O)C3)cc(F)c2N1 (single isomer, unassigned) [Example 30A]
0.33 | 3.32 | – | O=c1[nH]c2c(F)cc([C@H](O)CN3C[C@H]4C[C@H](Oc5ccccc5)C[C@@]4(O)C3)cc2cc1F (single isomer, unassigned) [Example 20B]
2.7 | 3.81 | – | O=C1Nc2ccc([C@@H](O)CN3C[C@H]4C[C@H](Oc5ccccc5)C[C@@]4(O)C3)c(F)c2CO1 (single isomer, unassigned) [Example 34A]
0.049 | 2.06 | – | O=c1[nH]c2ccc([C@H](O)CN3C[C@H]4C[C@H](Oc5ccccc5)C[C@@]4(O)C3)cc2s1 (single isomer, unassigned) [Example 17B]
1.4 | 1.43 | – | O=C1CCc2cc([C@@H](O)CN3C[C@@H]4C[C@@H](Oc5ccc(F)cc5)C[C@]4(O)C3)ccc2N1 (single isomer, unassigned) [Example 22C]
170 | 6.09 | – | O[C@@H](CN1C[C@H]2C[C@H](Oc3ccccc3F)[C@H](O)[C@@]2(O)C1)c1cnc2[nH]ccc2c1 (single isomer, unassigned) [Example 44A]
0.57 | 3.46 | – | O=c1ccc2cc([C@H](O)CN3C[C@H]4C[C@H](Oc5ccccc5)C[C@@]4(O)C3)ccc2[nH]1 (single isomer, unassigned) [Example 8B]
1.5 | 2.44 | – | O=C1Nc2cc(F)c([C@H](O)CN3C[C@H]4C[C@H](Oc5ccccc5)C[C@@]4(O)C3)cc2CO1 (single isomer, unassigned) [Example 36B]
2.4 | 1.29 | – | O=C1CCc2cc([C@H](O)CN3C[C@@H]4C[C@@H](Oc5ccccc5F)C[C@]4(O)C3)cc(F)c2N1 (single isomer, unassigned) [Example 6D]
1.9 | 1.74 | – | CC1(C)Cc2cc([C@@H](O)CN3C[C@H]4C[C@H](Oc5ccccc5)C[C@@]4(O)C3)ccc2NC1=O (single isomer, unassigned) [Example 11A]
0.056 | 2.64 | – | O=C1CCc2cc([C@H](O)CN3C[C@@H]4C[C@@H](Oc5cccc(F)c5F)C[C@]4(O)C3)ccc2N1 (single isomer, unassigned) [Example 24D]
0.24 | 2.74 | – | O=C1CCc2cc([C@@H](O)CN3C[C@@H]4C[C@@H](Oc5ccc(F)cc5F)C[C@]4(O)C3)ccc2N1 (single isomer, unassigned) [Example 25C]
1.4 | 3.75 | – | O=C1CCc2cc([C@@H](O)CN3C[C@@H]4C[C@@H](Oc5cccc(F)c5)C[C@]4(O)C3)ccc2N1 (single isomer, unassigned) [Example 23C]
1.3 | 3.27 | – | O=C1CCc2cc([C@@H](O)CN3C[C@@H]4C[C@@H](Oc5cc(F)ccc5F)C[C@]4(O)C3)ccc2N1 (single isomer, unassigned) [Example 26C]
130 | 3.23 | – | O=C1CCc2cc([C@@H](O)CN3C[C@H]4C[C@H](Oc5ccccc5F)[C@H](O)[C@@]4(O)C3)cc(F)c2N1 (single isomer, unassigned) [Example 29A]
0.011 | 1.51 | – | O=C1Nc2ccc([C@@H](O)CN3C[C@H]4C[C@H](Oc5ccccc5)C[C@@]4(O)C3)cc2CS1 (single isomer, unassigned) [Example 14A]
5.1 | 1.58 | – | O=C1Nc2c(cc([C@@H](O)CN3C[C@H]4C[C@H](Oc5ccccc5)C[C@@]4(O)C3)c(F)c2F)CO1 (single isomer, unassigned) [Example 38A]
5490 | 7.49 | – | O=C1Cc2cc([C@@H](O)CN3C[C@@H]4C[C@@H](Oc5ccccc5)[C@@H](O)[C@]4(O)C3)ccc2N1 [Example 3A, 5-((R)-2-((3aR,4R,5R,6aS)-3a,4-dihydroxy-5-phenoxyhexahydrocyclopenta[c]pyrrol-2(1H)-yl)-1-hydroxyethyl)indolin-2-one]
63 | 3.54 | – | O=C1Cc2cc([C@H](O)CN3C[C@H]4C[C@H](Oc5ccccc5)C[C@@]4(O)C3)ccc2N1 [Example 2B, 5-((S)-1-hydroxy-2-((3aS,5S,6aR)-3a-hydroxy-5-phenoxyhexahydrocyclopenta[c]pyrrol-2(1H)-yl)ethyl)indolin-2-one]
0.3 | 2.81 | – | O=C1Nc2ccc([C@@H](O)CN3C[C@H]4C[C@H](Oc5ccccc5F)C[C@@]4(O)C3)cc2CCO1 (single isomer, unassigned) [Example 12A]
1.7 | 1.52 | – | O=C1CCc2cc([C@@H](O)CN3C[C@@H]4C[C@@H](Oc5c(F)cccc5F)C[C@]4(O)C3)ccc2N1 (single isomer, unassigned) [Example 27C]
> 10000 | – | 6.36 | O=C1Cc2cc([C@H](O)CN3C[C@@H]4C[C@@H](Oc5ccccc5)[C@@H](O)[C@]4(O)C3)ccc2N1 [Example 3B]
